Measurements: patent US20130102595A1 (Curis, Inc., priority 2011, published 2013)

How the values were obtained:
[1] = system: CaPan2; test: Cell proliferation assay (CellTiter-Glo); format: cell-based; settings: Homo sapiens, Capan-2; Pancreas; 72 hours, 0.5% fetal bovine serum; read-out: antiproliferative activity IC50, CaPan2
How it was run: (§1)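 Cells seeded at 5,000 to 10,000 per well were exposed to a range of compound concentrations for 72 hours in 0.5% fetal bovine serum. Growth inhibition was then determined from ATP content by luciferase luminescence after a 30-minute lysis incubation.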

[2] = system: Calu6; test: Cell proliferation assay (CellTiter-Glo); format: cell-based; settings: Homo sapiens, Calu-6; NSCLC; 72 hours, 0.5% fetal bovine serum; read-out: antiproliferative activity IC50, Calu6
How it was run: as §1

[3] = system: SW620; test: Cell proliferation assay (CellTiter-Glo); format: cell-based; settings: Homo sapiens, SW-620; Colon; 72 hours, 0.5% fetal bovine serum; read-out: antiproliferative activity IC50, SW620
How it was run: as §1

[4] = system: OPM-2; test: Cell proliferation assay (CellTiter-Glo); format: cell-based; settings: Homo sapiens, Multiple Myeloma, 72 hours, 0.5% fetal bovine serum, read-out: antiproliferative activity IC50, OPM-2
How it was run: as §1

[5] = system: PANC-1; test: Cell proliferation assay (CellTiter-Glo); format: cell-based; settings: Homo sapiens, Pancreas, 72 hours, 0.5% fetal bovine serum, read-out: antiproliferative activity IC50, PANC-1
How it was run: as §1

[6] = system: WiDr; test: Cell proliferation assay (CellTiter-Glo); format: cell-based; settings: Homo sapiens, Colon, 72 hours, 0.5% fetal bovine serum, read-out: antiproliferative activity IC50, WiDr
How it was run: as §1

[7] = system: SW1990; test: Cell proliferation assay (CellTiter-Glo); format: cell-based; settings: Homo sapiens, Pancreas, 72 hours, 0.5% fetal bovine serum, read-out: antiproliferative activity IC50, SW1990
How it was run: as §1

[8] = system: H2122; test: Cell proliferation assay (CellTiter-Glo); format: cell-based; settings: Homo sapiens, NCI-H2122; NSCLC; 72 hours, 0.5% fetal bovine serum; read-out: antiproliferative activity IC50, H2122
How it was run: as §1

[9] = system: H358; test: Cell proliferation assay (CellTiter-Glo); format: cell-based; settings: Homo sapiens, NCI-H358; NSCLC; 72 hours, 0.5% fetal bovine serum; read-out: antiproliferative activity IC50, H358
How it was run: as §1

[10] = system: MiaPaca1; test: Cell proliferation assay (CellTiter-Glo); format: cell-based; settings: Pancreas; 72 hours, 0.5% fetal bovine serum; read-out: antiproliferative activity IC50, MiaPaca1
How it was run: as §1

[11] = system: CFPAC-1; test: Cell proliferation assay (CellTiter-Glo); format: cell-based; settings: Homo sapiens, Pancreas, 72 hours, 0.5% fetal bovine serum, read-out: antiproliferative activity IC50, CFPAC-1
How it was run: as §1

[12] = system: SWI-116; test: Cell proliferation assay (CellTiter-Glo); format: cell-based; settings: Colon; 72 hours, 0.5% fetal bovine serum; read-out: antiproliferative activity IC50, SWI-116
How it was run: as §1

[13] = system: SW403; test: Cell proliferation assay (CellTiter-Glo); format: cell-based; settings: Homo sapiens, SW-403; Colon; 72 hours, 0.5% fetal bovine serum; read-out: antiproliferative activity IC50, SW403
How it was run: as §1

[14] = system: H460; test: Cell proliferation assay (CellTiter-Glo); format: cell-based; settings: Homo sapiens, NCI-H460; NSCLC; 72 hours, 0.5% fetal bovine serum; read-out: antiproliferative activity IC50, H460
How it was run: as §1

[15] = system: HCT116; test: Cell proliferation assay (CellTiter-Glo); format: cell-based; settings: Homo sapiens, HCT-116; Colon; 72 hours, 0.5% fetal bovine serum; read-out: antiproliferative activity IC50, HCT116
How it was run: as §1

[16] = system: H292; test: Cell proliferation assay (CellTiter-Glo); format: cell-based; settings: Homo sapiens, NCI-H292; NSCLC; 72 hours, 0.5% fetal bovine serum; read-out: antiproliferative activity IC50, H292
How it was run: as §1

[17] = system: A549; test: Cell proliferation assay (CellTiter-Glo); format: cell-based; settings: Homo sapiens, NSCLC, 72 hours, 0.5% fetal bovine serum, read-out: antiproliferative activity IC50, A549
How it was run: as §1

[18] = system: T-84; test: Cell proliferation assay (CellTiter-Glo); format: cell-based; settings: Homo sapiens, T84; Colon; 72 hours, 0.5% fetal bovine serum; read-out: antiproliferative activity IC50, T-84
How it was run: as §1

[19] = target: T1, mTor serine/threonine protein kinase (Homo sapiens, UniProt P42345); test: mTor kinase radioisotope assay; format: biochemical; settings: 70 uM ATP, 40 minutes; read-out: m-TOR IC50
T1 construct: FLAG; made in house; host or cells: Baculovirus expression system in Sf21 cells
How it was run: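 FLAG-tagged full-length recombinant human mTor from baculovirus/Sf21, incubated with p70S6K C-terminal fragment (2 mg/ml) and 70 uM ATP plus 33P-ATP tracer in 50 mM HEPES pH 7.5, 3 mM MnCl2, 40 min at room temperature. Phosphoric acid stop, filtermat capture, scintillation counting; IC50 from sigmoidal dose-response fit.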

[20] = system: HDACs (HeLa cell nuclear extracts); test: HDAC enzymatic activity, Biomol Color de Lys system; format: biochemical; settings: 1 hour, 25° C.
How it was run: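 HeLa nuclear extract incubated with serially diluted compound and […] artificial substrate in 50 mM Tris/Cl pH 8.0, 137 mM NaCl, 2.7 mM KCl, 1 mM MgCl2. Run 1 h at 25 °C, stopped with developer. Fluorescence read (ex 350-380, em 440-460 nm); IC50 from sigmoidal dose-response fit.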

[21] = system: OVCAR-5; test: Cell proliferation assay (CellTiter-Glo); format: cell-based; settings: Homo sapiens, Ovarian, 72 hours, 0.5% fetal bovine serum, read-out: antiproliferative activity IC50, OVCAR-5
How it was run: as §1

[22] = system: LN-Cap; test: Cell proliferation assay (CellTiter-Glo); format: cell-based; settings: Homo sapiens, LNCaP; Prostate; 72 hours, 0.5% fetal bovine serum; read-out: antiproliferative activity IC50, LN-Cap
How it was run: as §1

[23] = system: PC-3; test: Cell proliferation assay (CellTiter-Glo); format: cell-based; settings: Homo sapiens, Prostate, 72 hours, 0.5% fetal bovine serum, read-out: antiproliferative activity IC50, PC-3
How it was run: as §1

[24] = system: CaPan1; test: Cell proliferation assay (CellTiter-Glo); format: cell-based; settings: Homo sapiens, CAPAN-1; Pancreas; 72 hours, 0.5% fetal bovine serum; read-out: antiproliferative activity IC50, CaPan1
How it was run: as §1

[25] = system: MDA-MB-231; test: Cell proliferation assay (CellTiter-Glo); format: cell-based; settings: Homo sapiens, Breast, 72 hours, 0.5% fetal bovine serum, read-out: antiproliferative activity IC50, MDA-MB-231
How it was run: as §1

[26] = system: glioblastoma xenografts; settings: oral dosage; cited from earlier work

COc1ccc(-c2nc(N3CCOCC3)c3sc(CN(C)c4ncc(C(=O)NO)cn4)cc3n2)cn1 [Compound 236, N-Hydroxy-2-(((2-(6-methoxypyridin-3-yl)-4-morpholinothieno[3,2-d]pyrimidin-6-yl)methyl)(methyl)amino)pyrimidine-5-carboxamide]
IC50 [1]: 10 to 100 nM | IC50 [2]: 10 to 100 nM | IC50 [3]: < 10 nM | IC50 [4]: < 10 nM | IC50 [5]: 10 to 100 nM | IC50 [6]: 10 to 100 nM | IC50 [7]: < 10 nM | IC50 [8]: < 10 nM | IC50 [9]: < 10 nM | IC50 [10]: 10 to 100 nM | IC50 [11]: 10 to 100 nM | IC50 [12]: < 10 nM | IC50 [13]: < 10 nM | IC50 [14]: 10 to 100 nM | IC50 [15]: < 10 nM | IC50 [16]: < 10 nM | IC50 [17]: 10 to 100 nM | IC50 [18]: 10 to 100 nM | IC50 [19]: 1000 to 10000 nM | IC50 [20]: < 100 nM

CS(=O)(=O)N1CCN(Cc2cc3nc(-c4cccc5[nH]ncc45)nc(N4CCOCC4)c3s2)CC1 [GDC-0941, reference compound]
IC50 [1]: 1000 to 10000 nM | IC50 [21]: 100 to 1000 nM | IC50 [2]: 1000 to 10000 nM | IC50 [3]: 100 to 1000 nM | IC50 [4]: 100 to 1000 nM | IC50 [5]: 1000 to 10000 nM | IC50 [6]: 100 to 1000 nM | IC50 [7]: 1000 to 10000 nM | IC50 [8]: 1000 to 10000 nM | IC50 [9]: 1000 to 10000 nM | IC50 [22]: 100 to 1000 nM | IC50 [23]: 1000 to 10000 nM | IC50 [10]: 1000 to 10000 nM | IC50 [11]: 1000 to 10000 nM | IC50 [12]: 100 to 1000 nM | IC50 [13]: 1000 to 10000 nM | IC50 [14]: 100 to 1000 nM | IC50 [15]: 100 to 1000 nM | IC50 [24]: 1000 to 10000 nM | IC50 [16]: 1000 to 10000 nM | IC50 [17]: 100 to 1000 nM | IC50 [25]: > 10000 nM | IC50 [18]: 1000 to 10000 nM | effect in glioblastoma xenografts in vivo [26]: tumor suppression
